Reference: paper PMC2346451 (PLoS ONE, 2008)

Target: T1, rat TRPV2 (rTRPV2) (Rattus norvegicus, UniProt Q9WUD2)
T1 construct: expressed in transfected cells; host or cells: HEK-293T
T1 sequence (Q9WUD2 1-761): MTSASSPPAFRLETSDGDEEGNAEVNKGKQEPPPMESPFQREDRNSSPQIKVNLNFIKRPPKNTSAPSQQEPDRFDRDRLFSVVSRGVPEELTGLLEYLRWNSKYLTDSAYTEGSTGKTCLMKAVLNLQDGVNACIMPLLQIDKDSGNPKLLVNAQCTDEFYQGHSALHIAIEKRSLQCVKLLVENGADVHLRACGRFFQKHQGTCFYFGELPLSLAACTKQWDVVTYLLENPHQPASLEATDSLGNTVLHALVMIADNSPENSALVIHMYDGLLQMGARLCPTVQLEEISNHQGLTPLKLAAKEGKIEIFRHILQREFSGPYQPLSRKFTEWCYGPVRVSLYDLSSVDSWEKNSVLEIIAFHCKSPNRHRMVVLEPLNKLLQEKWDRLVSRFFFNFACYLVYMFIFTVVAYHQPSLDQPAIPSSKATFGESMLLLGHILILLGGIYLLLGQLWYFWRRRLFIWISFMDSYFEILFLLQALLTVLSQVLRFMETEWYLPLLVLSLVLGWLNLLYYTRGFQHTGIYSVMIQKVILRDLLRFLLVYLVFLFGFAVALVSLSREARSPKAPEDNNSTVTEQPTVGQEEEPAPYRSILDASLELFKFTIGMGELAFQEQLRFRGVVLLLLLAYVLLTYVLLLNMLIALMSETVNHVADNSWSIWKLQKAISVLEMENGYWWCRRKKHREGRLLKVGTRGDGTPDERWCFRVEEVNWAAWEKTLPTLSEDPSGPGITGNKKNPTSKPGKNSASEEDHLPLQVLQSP
Test: Whole-cell patch clamp of rat TRPV2 expressed in HEK-293T cells
Format: cell-based
Design: key to Agonist efficacy: Ø - not activated
Settings: for Increase of agonist-evoked current prior to onset of inhibition: citral 1 mM, n = 10
Procedure: Transformed human embryonic kidney-293 (HEK-293T) cells were grown in Dulbecco's modified Eagle's medium (DMEM)+F-12 supplemented with 10% fetal calf serum, and 1% penicillin/streptomycin in 5% CO2 at 37°C. Cells grown to 90% confluence in 35 mm Petri dishes were transiently transfected with plasmid DNA encoding a TRP channel construct (1 µg). Rat TRPV1 (rTRPV1) was cloned into an enhanced green fluorescent protein-containing vector (pTracer-CMV2; Invitrogen, Carlsbad, CA). Chicken TRPV1 (cTRPV1), the chicken rat TRPV1 chimera (crcTRPV1), rat TRPV2 (rTRPV2), mouse TRPV3 (mTRPV3), mouse TRPV4 (mTRPV4), rat TRPM8 (rTRPM8), and rat TRPA1 (rTRPA1), were cloned into pcDNA3 and co-transfected with enhanced green fluorescent protein (0.1 µg) to follow expression. The cTRPV1 and crcTRPV1 clones were kindly provided by Dr. David Julius. Recordings were carried out 24–36 hours after transfection. Cells were split via trypsin EDTA, plated on glass coverslips at 5–10% confluence, and used 2–3 hours later.
Electrophysiological experiments were performed using the whole-cell patch-clamp technique at room temperature. Modified Ringer's solution with low chloride and nominal calcium contained (in mM): 130 sodium hydroxide, 5 potassium chloride, 1 magnesium chloride, 10 sodium 4-(2-hydroxyethyl)-1-piperazineethanesulfonic acid, 10 2-(N-morpholino)ethanesulfonic acid, and 20 glucose (pH 7.4; 310 milli-osmolar). […] 2 mM calcium chloride was included in the external solution where noted. To activate TRPV1, the modified Ringer's solution was made at pH 5 (low pH solution) and the chloride concentration was kept to a minimum to prevent contamination of the TRPV1 currents with acid-activated chloride currents. For recordings from heterologously expressing cells, the internal pipette solution contained (in mM): 125 cesium-Methanesulfonate, 10 cesium (1.2-bis(o-aminophenoxy)ethane-N,N,N',N'-tetraacetic acid, 8 sodium chloride, 4 magnesium adenosine triphosphate, and 10 HEPES (pH 7.2; 290 mOSM; nominal free calcium concentrations). For TRPA1 and dorsal root ganglion recordings, the internal pipette solution contained (in mM): 110 cesium-Methanesulfonate, 0.5 cesium4BAPTA, 8 sodium chloride, 0.2 calcium chloride, 4 magnesium-ATP, 4 sodium-GTP, and 10 4-(2-hydroxyethyl)-1-piperazineethanesulfonic acid (pH 7.2; 290 mOSM; 100 nM free calcium internal). MaxChelator was used to calculate the free calcium concentration (http://www.stanford.edu/cpatton/maxc.html).
Recordings were obtained using an Axopatch 200B amplifier, Digidata 1322A analog-to-digital converter, and pClamp 8.01 software (Molecular Devices, Union City, CA). Data were low-pass filtered at 2 kHz and digitized at 5 kHz. Borosilicate glass pipettes (World Precision Instruments, Sarasota, FL) were typically 3 MΩ pipette resistance after fire polishing. Cell capacitance was measured for each cell, and access resistance compensated to ∼80%. Recordings were begun ∼5 minutes after initial rupture to ensure initial steady state conditions. Current-voltage (I-V) relations were obtained using a ramp protocol. Voltage ramps (400 ms) from −100 to +40 or +100 mV were applied every 1–2 seconds and the holding potential was either −70 mV or 0 mV (see Figure Legends). A 40 ms step was added at the beginning and end of the ramp (i.e. at −100 mV, +40 mV or +100 mV). Liquid junction potentials were not corrected.
The dose response curves were fit with the Hill equation, where [drawing 8] and [A] is the concentration of agonist or blocker, N is the Hill coefficient, and KD is the [A] for Imeasured/Imax = 0.5. The term apparent dissociation constant is used in place of the half concentration of excitation and inhibition. […] Averaged data are presented as mean±standard error (S.E.) throughout. Statistical analysis included paired and unpaired Student's t-test comparisons of the data; p values are reported in the text.

CC(C)=CCCC(C)=CC=O [citral, 3,7-dimethyl-2,6-octadienal]
Agonist efficacy: Ø
Reversibility of citral inhibition of agonist-evoked current: essentially irreversible
Increase of agonist-evoked current prior to onset of inhibition (+100 mV): 2.2±0.2 fold
Increase of agonist-evoked current prior to onset of inhibition (−100 mV): 2.5±0.4 fold
Hill coefficient (inhibition) (citral block of 2-aminoethyldiphenyl borate-evoked current): 2.4
Kd (read-out: Inhibition KD, app): 534 µM
